Data on eleven compounds can be found in patent US9475839B2, “Peptide-based inhibitor of interleukin-10 or interferon-gamma signaling” (THE UNITED STATES OF AMERICA, AS REPRESENTED BY THE …, priority 2010, dated 2016).

Where two headings read alike, the source gives them in different places. Positions of bridges follow the written chain, without caps; N, C: chain ends. Non-standard residues stand in square brackets, D forms with d. Residues, ends and D or L forms follow the SMILES beside them. Chains are numbered I, II in the order given. ξ: configuration not given here. *: point of attachment. C(fluorescein) = cysteine carrying a fluorescein label; Palmitoyl = CCCCCCCCCCCCCCCC(=O)*; PEG4 = NCCOCCOCCOCCOCCC(=O)O; Nle = CCCC[C@H](N)C(=O)O; Aib = CC(C)(N)C(=O)O; ξK = NCCCCC(N)C(=O)O

One experiment relates to mouse mast MC/9 cells. The experiment in a line: Inhibition of IL10-dependent growth of MC/9 cells, MTT assay, 48 hours. It is filed as cell-based.
The subject of experiment [1] is MDA-MB-231 breast cancer cells. The experiment in a line: Inhibition of IFN-gamma-dependent growth of MDA-MB-231 cells, MTT assay, 48 hours. It is filed as cell-based. Conditions: 48 h.
Experimental: (§1) Cells were exposed to compounds for 48 hours and cell number was determined with the help of MTT assay.
(§2) Cells were exposed to IL10-HF-1 for 48 hours and cell number was determined with the help of MTT assay.
(§3) Peptides designed to mimic conserved regions of the receptor sequences were tested for the ability to inhibit IL10 and IFN-gamma signaling. Inhibition of IL10 signaling was tested in a mouse mast cell line MC/9. […] Abrogation of IFN-gamma signaling or STAT1 activation causes cell death in this cell line.
Experiment [2] concerns the target T1, recombinant human IFN-gamma (Homo sapiens, UniProt P01579).
T1 sequence (P01579 24-161 limits assumed): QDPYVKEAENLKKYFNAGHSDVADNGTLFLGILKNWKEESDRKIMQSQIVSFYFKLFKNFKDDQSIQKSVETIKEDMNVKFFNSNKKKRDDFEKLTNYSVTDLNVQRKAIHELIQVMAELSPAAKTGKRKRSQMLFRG
The experiment in a line: Microscale thermophoresis binding to IFN-gamma. Conditions: result in words. The text has this: To evaluate whether synthetic helix F analogs could interact with the corresponding cytokine, fluorescent derivatives of helix F were synthesized. The helix F analogs are described below.

The mark [3] stands for this setting: Table 4, compounds mimicking conserved regions of IL10R1, cell line not given, read-out: GI50.

Experimental for mouse mast MC/9 cells: as §1, §2, §3

Consider `CCCC[C@H](NC(=O)[C@H](Cc1ccc(O)cc1)NC(=O)[C@H](C)NC(=O)[C@H](CCC(=O)O)NC(=O)[C@@H](NC(=O)[C@H](Cc1ccc(O)cc1)NC(=O)[C@H](CC(N)=O)NC(=O)[C@@H](NC(=O)[C@H](Cc1ccccc1)NC(=O)[C@@H](NC(=O)[C@H](CC(=O)O)NC(=O)[C@H](Cc1ccccc1)NC(=O)[C@H](CCC(=O)O)NC(=O)[C@H](CO)NC(=O)C(C)(C)NC(C)=O)[C@@H](C)CC)[C@@H](C)CC)[C@@H](C)CC)C(=O)NCCOCCOCCOCCOCCC(=O)NCCCCC(NC(=O)CCOCCOCCOCCOCCNC(=O)[C@H](CCCC)NC(=O)[C@H](Cc1ccc(O)cc1)NC(=O)[C@H](C)NC(=O)[C@H](CCC(=O)O)NC(=O)[C@@H](NC(=O)[C@H](Cc1ccc(O)cc1)NC(=O)[C@H](CC(N)=O)NC(=O)[C@@H](NC(=O)[C@H](Cc1ccccc1)NC(=O)[C@@H](NC(=O)[C@H](CC(=O)O)NC(=O)[C@H](Cc1ccccc1)NC(=O)[C@H](CCC(=O)O)NC(=O)[C@H](CO)NC(=O)C(C)(C)NC(C)=O)[C@@H](C)CC)[C@@H](C)CC)[C@@H](C)CC)C(N)=O` (stereo partly shown) [IL10-HF-1] (I: Ac-[Aib]SEFDIFINYIEAY[Nle][PEG4][ξK]-NH2 / II: Ac-[Aib]SEFDIFINYIEAY[Nle][PEG4]; amide I:17-II:C), for which the GI50 in the experiment with mouse mast MC/9 cells (FIG. 2, 48 hours exposure, MTT assay, read-out: GI50, IL10 dependent growth of MC/9) came to 50 nM.

On to `CCCCCCCCCCCCCCCC(=O)N[C@@H](CC(C)C)C(=O)N[C@@H](Cc1ccc(O)cc1)C(=O)N[C@H](C(=O)N[C@@H](CCCNC(=N)N)C(=O)N[C@@H](CCCNC(=N)N)C(=O)N[C@@H](CCCNC(=N)N)C(=O)N[C@@H](CCCCN)C(=O)N[C@@H](CCCCN)C(=O)N[C@@H](CC(C)C)C(=O)N1CCC[C@H]1C(=O)N[C@@H](CO)C(=O)N[C@H](C(=O)N[C@@H](CC(C)C)C(=O)N[C@@H](CC(C)C)C(=O)N[C@@H](Cc1ccccc1)C(=O)N[C@@H](CCCCN)C(=O)N[C@@H](CCCCN)C(N)=O)C(C)C)C(C)C` [IL10R1-1, Pal-LYVRRRKKLPSVLLFKK-NH2] (Palmitoyl-LYVRRRKKLPSVLLFKK-NH2), for which the GI50 in the experiment with mouse mast MC/9 cells (48 h) was 1000 nM; in experiment [1], 25 nM.

As for `CCCCCCCCCCCCCCCC(=O)NCCCC[C@H](N)C(=O)N[C@@H](CCCCN)C(=O)N[C@@H](CC(C)C)C(=O)N1CCC[C@H]1C(=O)N[C@@H](CO)C(=O)N[C@H](C(=O)N[C@@H](CC(C)C)C(=O)N[C@@H](CC(C)C)C(=O)N[C@@H](Cc1ccccc1)C(=O)N[C@@H](CCCCN)C(=O)N[C@@H](CCCCN)C(=O)N1CCC[C@H]1C(=O)N[C@@H](CO)C(N)=O)C(C)C` [IL10R1-3, ε-Pal-KKLPSVLLFKKPS-NH2] (H-K(Palmitoyl)KLPSVLLFKKPS-NH2; N-terminus assumed), the GI50 in the experiment on mouse mast MC/9 cells (48 h) is 50 nM; in experiment [1], 2500 nM.

In the experiment on mouse mast MC/9 cells (48 h), `CCCCCCCCCCCCCCCC(=O)N[C@@H](CC(C)C)C(=O)N[C@@H](Cc1c[nH]cn1)C(=O)NCC(=O)N[C@@H](CO)C(=O)N[C@H](C(=O)N[C@@H](CC(=O)O)C(=O)N[C@@H](CO)C(=O)NCC(=O)N[C@@H](Cc1ccccc1)C(=O)NCC(=O)N[C@@H](CO)C(=O)N[C@H](C(=O)N[C@@H](CCCCN)C(=O)N1CCC[C@H]1C(=O)N[C@@H](CO)C(=O)N[C@@H](CC(C)C)C(=O)N[C@@H](CCC(N)=O)C(=O)N[C@H](C(=O)O)[C@@H](C)O)[C@@H](C)O)[C@@H](C)O` [IL10R1-5, Pal-LHGSTDSGFGSTKPSLQT] (Palmitoyl-LHGSTDSGFGSTKPSLQT-OH; N-terminus and C-terminus assumed) had a GI50 of 1000 nM.

In the experiment on mouse mast MC/9 cells (48 h), `CCCCCCCCCCCCCCCC(=O)NCCCC[C@H](N)C(=O)N[C@@H](CC(C)C)C(=O)N[C@H](C(=O)N[C@H](C(=O)N[C@@H](CC(C)C)C(=O)N1CCC[C@H]1C(=O)N[C@@H](CC(C)C)C(=O)N[C@H](C(=O)N[C@@H](CO)C(=O)N[C@@H](CO)C(=O)N[C@@H](CC(C)C)C(=O)N[C@@H](CCC(N)=O)C(=O)N[C@@H](CO)C(=O)N[C@@H](CO)C(=O)N[C@@H](CCC(=O)O)C(N)=O)[C@@H](C)CC)[C@@H](C)O)C(C)C` [IL10R1-7, ε-Pal-KLVTLPLISSLQSSE-NH2] (H-K(Palmitoyl)LVTLPLISSLQSSE-NH2; N-terminus assumed) registered a GI50 of 5000 nM.

For `CCCCCCCCCCCCCCCC(=O)NCCCC[C@H](N)C(=O)N1CCC[C@H]1C(=O)N1CCC[C@H]1C(=O)N[C@@H](C)C(=O)N[C@@H](CC(C)C)C(=O)N[C@@H](C)C(=O)N[C@@H](CCCCN)C(=O)NCC(=O)N[C@@H](Cc1ccc(O)cc1)C(=O)N[C@@H](CC(C)C)C(=O)N[C@@H](CCCCN)C(=O)N[C@@H](CCC(N)=O)C(N)=O` [IL10R1-8, ε-Pal-KPPALAKGYLKQ-NH2] (H-K(Palmitoyl)PPALAKGYLKQ-NH2; N-terminus assumed), in the experiment with mouse mast MC/9 cells (48 h), the GI50 is 5000 nM.

On to `CCCCCCCCCCCCCCCC(=O)NCCCC[C@@H](NC(=O)[C@@H](CC(C)C)NC(=O)[C@@H](Cc1c[nH]cn1)NC(=O)CNC(=O)[C@@H](CO)NC(=O)[C@H](NC(=O)[C@@H](CC(=O)O)NC(=O)[C@@H](CO)NC(=O)CNC(=O)[C@@H](Cc1ccccc1)NC(=O)CNC(=O)[C@@H](CO)NC(=O)[C@H](NC(=O)[C@@H](CCCCN)NC(=O)[C@H]1CCCN1C(=O)[C@@H](CO)NC(=O)[C@@H](CC(C)C)NC(=O)[C@@H](CCC(N)=O)NC(=O)[C@H](NC(=O)[C@@H](CCC(=O)O)NC(=O)[C@@H](CCC(=O)O)NC(C)=O)[C@H](C)O)[C@H](C)O)[C@H](C)O)C(N)=O` [IL10R1-14] (Ac-[dE][dE][dT][dQ][dL][dS][dP][dK][dT][dS]G[dF]G[dS][dD][dT][dS]G[dH][dL][dK](Palmitoyl)-NH2; C-terminus assumed), for which, in the experiment with mouse mast MC/9 cells (setting [3]), the GI50 turned out to be 1000 nM.

On to `CCCCCCCCCCCCCCCC(=O)NCCCC[C@@H](NC(=O)[C@@H](CC(C)C)NC(=O)[C@@H](Cc1c[nH]cn1)NC(=O)CNC(=O)[C@@H](CO)NC(=O)[C@H](NC(=O)[C@@H](CC(=O)O)NC(=O)[C@@H](CO)NC(=O)CNC(=O)[C@@H](Cc1ccccc1)NC(=O)CNC(=O)[C@@H](CO)NC(=O)[C@H](NC(=O)[C@@H](CCCCN)NC(=O)[C@H]1CCCN1C(=O)[C@@H](CO)NC(=O)[C@@H](CC(C)C)NC(=O)[C@@H](CCC(N)=O)NC(=O)[C@H](NC(=O)[C@@H](CCC(=O)O)NC(C)=O)[C@H](C)O)[C@H](C)O)[C@H](C)O)C(N)=O` [IL10R1-15] (Ac-[dE][dT][dQ][dL][dS][dP][dK][dT][dS]G[dF]G[dS][dD][dT][dS]G[dH][dL][dK](Palmitoyl)-NH2; C-terminus assumed), for which the GI50 with mouse mast MC/9 cells (setting [3]) was more than 5000 nM.

Consider `CCCCCCCCCCCCCCCC(=O)NCCCC[C@@H](N)C(=O)N[C@@H](C(=O)N[C@H](CCC(N)=O)C(=O)N[C@H](CC(C)C)C(=O)N[C@H](CO)C(=O)N1CCC[C@@H]1C(=O)N[C@H](CCCCN)C(=O)N[C@@H](C(=O)N[C@H](CO)C(=O)NCC(=O)N[C@H](Cc1ccccc1)C(=O)NCC(=O)N[C@H](CO)C(=O)N[C@H](CC(=O)O)C(=O)N[C@@H](C(=O)N[C@H](CO)C(=O)NCC(=O)N[C@H](Cc1c[nH]cn1)C(=O)N[C@H](CC(C)C)C(N)=O)[C@H](C)O)[C@H](C)O)[C@H](C)O` [IL10R1-17, ε-Pal-KTQLSPKTSGFGSDTSGHL-NH2] (H-[dK](Palmitoyl)[dT][dQ][dL][dS][dP][dK][dT][dS]G[dF]G[dS][dD][dT][dS]G[dH][dL]-NH2; N-terminus assumed), for which the GI50 in the experiment with mouse mast MC/9 cells (setting [3]) is more than 5000 nM.

In the experiment with mouse mast MC/9 cells (48 h), `CCCCCCCCCCCCCCCC(=O)NCCCC[C@H](N)C(=O)N[C@@H](CC(C)C)C(=O)N[C@H](C(=O)N[C@H](C(=O)N[C@@H](CC(C)C)C(=O)N1CCC[C@H]1C(=O)N[C@@H](CC(C)C)C(=O)N[C@H](C(=O)N[C@@H](CO)C(=O)N[C@@H](CO)C(=O)N[C@@H](CC(C)C)C(=O)N[C@@H](CCC(N)=O)C(N)=O)[C@@H](C)CC)[C@@H](C)O)C(C)C` [IL10R1-27, ε-Pal-KLVTLPLISSLQ-NH2] (H-K(Palmitoyl)LVTLPLISSLQ-NH2; N-terminus assumed) displayed a GI50 of more than 5000 nM.

Turning to “Ac-C(Fluo)VQRKAIHELIQVx^13AELSPAAKT-NH2 ({Ac-C(fluorescein)}-VQRKAIHELIQV[Nle]AELSPAAKT-NH2) [IFNG-HF-6]”, the “Affinity for IFN-gamma” value in experiment [2] is given as “unexpectedly high affinity”.
